This experiment concerns the target Adenosine receptor A2a (Homo sapiens, UniProt P29274). Kind of experiment: Displacement of [3H]5-amino-7-[2- phenethyl]-2-(furan-2-yl)-7H-pyrazolo[4,3-e][l,2,4]triazolo[l,5-c]pyrimidine from human adenosine A2A receptor expressed in HEK293 cell membranes measured after 1 hr by TopCount scintillation counting method. In general terms: Loss of bound radioactivity is the signal in a displacement assay; it reports binding, not function.

Sequence of Adenosine receptor A2a (P29274 whole entry): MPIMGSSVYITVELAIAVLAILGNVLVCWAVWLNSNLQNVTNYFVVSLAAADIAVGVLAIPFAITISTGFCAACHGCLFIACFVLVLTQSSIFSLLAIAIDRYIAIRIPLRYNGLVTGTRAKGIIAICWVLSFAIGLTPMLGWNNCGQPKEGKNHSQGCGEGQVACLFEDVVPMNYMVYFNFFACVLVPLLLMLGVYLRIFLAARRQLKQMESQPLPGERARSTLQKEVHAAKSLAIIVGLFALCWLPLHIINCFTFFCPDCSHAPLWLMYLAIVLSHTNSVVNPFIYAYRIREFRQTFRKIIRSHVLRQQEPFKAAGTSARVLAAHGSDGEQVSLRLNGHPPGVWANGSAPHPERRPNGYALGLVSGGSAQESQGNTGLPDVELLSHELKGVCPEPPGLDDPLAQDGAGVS

Usually Ki stands for the equilibrium dissociation constant of an inhibitor or competing ligand from its target. A lower Ki goes with higher affinity. In the case of `CC(C)OCc1cccc(CNC(=O)c2nc(N)nc3c(F)cccc23)n1`, the Ki turned out to be 1 nM.

Source of the values: ChEMBL document CHEMBL3864169, “Quinazoline Carboxamides as Selective Antagonists of Adenosine 2A Receptor” (ACS Med Chem Lett, 2016).
